{"source": "paper PMC5224920", "about": "“Assessing the mechanism and therapeutic potential of modulators of the human Mediator complex-associated protein kinases” (eLife, 2016)", "test_system": "12 single or co-culture in vitro tissue models of primary cells", "assay": "Culture/co-culture cell model panel, extracellular biomarkers (DiscoveRx); on CCL2/MCP-1: reference of the scale not given here; on CD141/Thrombomodulin: reference of the scale not given here; on CD142/Tissue Factor: reference of the scale not given here; on CD38: reference of the scale not given here; on CD40: reference of the scale not given here; on CD69: reference of the scale not given here; on CXCL8/IL-8: reference of the scale not given here; on CXCL9/MIG: reference of the scale not given here; on M-CSF: reference of the scale not given here; on SRB: reference of the scale not given here; on sPGE2: reference of the scale not given here; on sTNF-alpha: reference of the scale not given here", "format": "cell-based, human", "key": {"[1]": {"settings": "HDF3CGF stimulated fibroblasts, 1.00E3 nM"}, "[2]": {"settings": "HDF3CGF stimulated fibroblasts, 1.00E4 nM"}, "[3]": {"settings": "HPNo Huvec+PBMC unstimulated, 1.00E0 nM"}, "[4]": {"settings": "HPNo Huvec+PBMC unstimulated, 1.00E1 nM"}, "[5]": {"settings": "HPNo Huvec+PBMC unstimulated, 1.00E2 nM"}, "[6]": {"settings": "HPNo Huvec+PBMC unstimulated, 1.00E3 nM"}, "[7]": {"settings": "HPNo Huvec+PBMC unstimulated, 1.00E4 nM"}}}
{"smiles": "CN1c2ccc(-c3cncc(Cl)c3N3CCC4(CC3)CNC(=O)O4)cc2CS1(=O)=O", "note": "[CMPD2]", "values": [{"measurement": "EGFR", "setting": "[1]", "result": -0.052}, {"measurement": "M-CSF", "setting": "[1]", "result": -0.096}, {"measurement": "MMP-1", "setting": "[1]", "result": 0.008}, {"measurement": "PAI-I", "setting": "[1]", "result": -0.00267}, {"measurement": "Proliferation_72hr", "setting": "[1]", "result": -0.251}, {"measurement": "SRB", "setting": "[1]", "result": 0.000361}, {"measurement": "TIMP-1", "setting": "[1]", "result": -0.053}, {"measurement": "TIMP-2", "setting": "[1]", "result": 0.124}, {"measurement": "CCL2/MCP-1", "setting": "[2]", "result": -0.114}, {"measurement": "CD54/ICAM-1", "setting": "[2]", "result": -0.054}, {"measurement": "CD106/VCAM-1", "setting": "[2]", "result": 0.046}, {"measurement": "CXCL8/IL-8", "setting": "[2]", "result": -0.128}, {"measurement": "CXCL9/MIG", "setting": "[2]", "result": -0.076}, {"measurement": "CXCL10/IP-10", "setting": "[2]", "result": 0.028}, {"measurement": "CXCL11/I-TAC", "setting": "[2]", "result": -0.031}, {"measurement": "Collagen I", "setting": "[2]", "result": 0.036}, {"measurement": "Collagen III", "setting": "[2]", "result": 0.126}, {"measurement": "EGFR", "setting": "[2]", "result": -0.055}, {"measurement": "M-CSF", "setting": "[2]", "result": -0.106}, {"measurement": "MMP-1", "setting": "[2]", "result": 0.00332}, {"measurement": "PAI-I", "setting": "[2]", "result": -0.018}, {"measurement": "Proliferation_72hr", "setting": "[2]", "result": -0.340}, {"measurement": "SRB", "setting": "[2]", "result": -0.00651}, {"measurement": "TIMP-1", "setting": "[2]", "result": -0.067}, {"measurement": "TIMP-2", "setting": "[2]", "result": 0.106}, {"measurement": "CCL2/MCP-1", "setting": "[3]", "result": 0.047}, {"measurement": "CD38", "setting": "[3]", "result": 0.008}, {"measurement": "CD40", "setting": "[3]", "result": -0.048}, {"measurement": "CD106/VCAM-1", "setting": "[3]", "result": 0.122}, {"measurement": "CD141/Thrombomodulin", "setting": "[3]", "result": 0.013}, {"measurement": "CD142/Tissue Factor", "setting": "[3]", "result": 0.008}, {"measurement": "CCL2/MCP-1", "setting": "[4]", "result": 0.017}, {"measurement": "CD38", "setting": "[4]", "result": -0.016}, {"measurement": "CD40", "setting": "[4]", "result": -0.068}, {"measurement": "CD106/VCAM-1", "setting": "[4]", "result": 0.183}, {"measurement": "CD141/Thrombomodulin", "setting": "[4]", "result": -0.006}, {"measurement": "CD142/Tissue Factor", "setting": "[4]", "result": 0.035}, {"measurement": "CCL2/MCP-1", "setting": "[5]", "result": 0.000304}, {"measurement": "CD38", "setting": "[5]", "result": 0.014}, {"measurement": "CD40", "setting": "[5]", "result": -0.055}, {"measurement": "CD106/VCAM-1", "setting": "[5]", "result": 0.274}, {"measurement": "CD141/Thrombomodulin", "setting": "[5]", "result": 0.005}, {"measurement": "CD142/Tissue Factor", "setting": "[5]", "result": 0.003}, {"measurement": "CCL2/MCP-1", "setting": "[6]", "result": 0.022}, {"measurement": "CD38", "setting": "[6]", "result": -0.028}, {"measurement": "CD40", "setting": "[6]", "result": -0.055}, {"measurement": "CD106/VCAM-1", "setting": "[6]", "result": 0.205}, {"measurement": "CD141/Thrombomodulin", "setting": "[6]", "result": 0.027}, {"measurement": "CD142/Tissue Factor", "setting": "[6]", "result": -0.00853}, {"measurement": "CCL2/MCP-1", "setting": "[7]", "result": 0.015}, {"measurement": "CD38", "setting": "[7]", "result": -0.095}, {"measurement": "CD40", "setting": "[7]", "result": -0.048}, {"measurement": "CD106/VCAM-1", "setting": "[7]", "result": 0.147}, {"measurement": "CD141/Thrombomodulin", "setting": "[7]", "result": 0.018}, {"measurement": "CD142/Tissue Factor", "setting": "[7]", "result": -0.051}, {"measurement": "CD69", "setting": "HPNo, 1.00E0 nM", "result": 0.011}, {"measurement": "CXCL8/IL-8", "setting": "HPNo, 1.00E0 nM", "result": 0.022}, {"measurement": "CXCL9/MIG", "setting": "HPNo, 1.00E0 nM", "result": 0.062}, {"measurement": "M-CSF", "setting": "HPNo, 1.00E0 nM", "result": 0.018}, {"measurement": "SRB", "setting": "HPNo, 1.00E0 nM", "result": -0.102}, {"measurement": "sPGE2", "setting": "HPNo, 1.00E0 nM", "result": 0.045}, {"measurement": "sTNF-alpha", "setting": "HPNo, 1.00E0 nM", "result": 0.140}, {"measurement": "CD69", "setting": "HPNo, 1.00E1 nM", "result": -0.097}, {"measurement": "CXCL8/IL-8", "setting": "HPNo, 1.00E1 nM", "result": -0.006}, {"measurement": "CXCL9/MIG", "setting": "HPNo, 1.00E1 nM", "result": -0.00447}, {"measurement": "M-CSF", "setting": "HPNo, 1.00E1 nM", "result": -0.015}, {"measurement": "SRB", "setting": "HPNo, 1.00E1 nM", "result": -0.043}, {"measurement": "sPGE2", "setting": "HPNo, 1.00E1 nM", "result": 0.026}, {"measurement": "sTNF-alpha", "setting": "HPNo, 1.00E1 nM", "result": 0.045}, {"measurement": "CD69", "setting": "HPNo, 1.00E2 nM", "result": 0.035}, {"measurement": "CXCL8/IL-8", "setting": "HPNo, 1.00E2 nM", "result": 0.008}, {"measurement": "CXCL9/MIG", "setting": "HPNo, 1.00E2 nM", "result": 0.020}, {"measurement": "M-CSF", "setting": "HPNo, 1.00E2 nM", "result": -0.038}, {"measurement": "SRB", "setting": "HPNo, 1.00E2 nM", "result": 0.011}, {"measurement": "sPGE2", "setting": "HPNo, 1.00E2 nM", "result": 0.045}, {"measurement": "sTNF-alpha", "setting": "HPNo, 1.00E2 nM", "result": 0.037}, {"measurement": "CD69", "setting": "HPNo, 1.00E3 nM", "result": -0.007}, {"measurement": "CXCL8/IL-8", "setting": "HPNo, 1.00E3 nM", "result": 0.014}, {"measurement": "CXCL9/MIG", "setting": "HPNo, 1.00E3 nM", "result": -0.00342}, {"measurement": "M-CSF", "setting": "HPNo, 1.00E3 nM", "result": 0.051}, {"measurement": "SRB", "setting": "HPNo, 1.00E3 nM", "result": 0.00149}, {"measurement": "sPGE2", "setting": "HPNo, 1.00E3 nM", "result": 0.054}, {"measurement": "sTNF-alpha", "setting": "HPNo, 1.00E3 nM", "result": -0.000698}, {"measurement": "CD69", "setting": "HPNo, 1.00E4 nM", "result": -0.024}, {"measurement": "CXCL8/IL-8", "setting": "HPNo, 1.00E4 nM", "result": 0.024}, {"measurement": "CXCL9/MIG", "setting": "HPNo, 1.00E4 nM", "result": -0.063}, {"measurement": "M-CSF", "setting": "HPNo, 1.00E4 nM", "result": -0.029}, {"measurement": "SRB", "setting": "HPNo, 1.00E4 nM", "result": -0.014}, {"measurement": "sPGE2", "setting": "HPNo, 1.00E4 nM", "result": 0.013}, {"measurement": "sTNF-alpha", "setting": "HPNo, 1.00E4 nM", "result": 0.230}, {"measurement": "CCL2/MCP-1", "setting": "LPS Huvec+PBMC, 1.00E0 nM", "result": 0.007}, {"measurement": "CD40", "setting": "LPS Huvec+PBMC, 1.00E0 nM", "result": -0.057}, {"measurement": "CD69", "setting": "LPS Huvec+PBMC, 1.00E0 nM", "result": -0.008}, {"measurement": "CD106/VCAM-1", "setting": "LPS Huvec+PBMC, 1.00E0 nM", "result": 0.052}, {"measurement": "CD141/Thrombomodulin", "setting": "LPS Huvec+PBMC, 1.00E0 nM", "result": 0.041}, {"measurement": "CD142/Tissue Factor", "setting": "LPS Huvec+PBMC, 1.00E0 nM", "result": 0.093}, {"measurement": "CXCL8/IL-8", "setting": "LPS Huvec+PBMC, 1.00E0 nM", "result": -0.00258}]}
